Assay results reported in patent US20090202987A1, “Canis sphingosine 1-phosphate receptor isoform 2” (priority 2004, published 2009).

Assays:
cS1P2 receptor [1] = molecular target: T1, cS1P2 receptor (Canis lupus familiaris, UniProt A0A8I3P3I1); experiment: 35S-GTPγS binding assay with membranes from transfected CHO cells; format: biochemical, Canis (dog); settings: membranes of cS1P2-transfected CHO cells, 5 μM GDP, 100 pM 35S-GTPγS, one hour at room temperature; read-out: EC50 (35S-GTPγS binding, FIG. 4)
Description: Functional coupling of the cS1P2 receptor to G proteins was measured in a ^35S-GTPγS binding assay. Membranes were prepared from transfected cells by homogenization in ice cold 20 mM HEPES pH 7.4, 10 mM EDTA using a Kinematica polytron (setting 5, for 10 seconds). Homogenates were centrifuged at 48,000×g for 15 minutes at 4° C. and the pellet suspended in 20 mM HEPES pH 7.4, 0.11 mM EDTA. Following a second centrifugation, the final pellet was suspended in 20 mM HEPES pH 7.4, 100 mM NaCl, 10 mM MgCl2. Membranes were incubated in 200 μL with 5 μM GDP, various concentrations of SIP (sonicated in 1% BSA), and 100 pM ^35S-GTPγS (NEN; specific activity 1250 Ci/mmol) in 96 well microtiter dishes. Binding was performed for one hour at room temperature, and terminated by harvesting the membranes onto GF/B filter plates with a Packard Filtermate Universal Harvester. After drying the filter plates for 30 min, 40 μL of MICROSCINT 20 was added to each well and binding was measured on a Packard Top Count scintillation counter.

cS1P2 receptor [2] = molecular target: T1, cS1P2 receptor; experiment: S1P ligand binding assay with transfected CHO cells expressing the cS1P2 receptor; set-up: species or system Canis (dog); settings: 33P-S1P binding to CHO cells expressing cS1P2, 60 minutes at room temperature; read-out: EC50 (S1P ligand binding, FIG. 3)
Description: The transfected CHO cells from Example 2 expressing the cS1P2 receptor were evaluated for the ability of the cS1P2 receptor expressed in the cells to properly integrate into the cell membrane and bind SIP.
Transfected CHO cells from Example 2 were harvested with enzyme-free dissociation solution (Specialty Media, Lavallette, N.J.). The cells were washed once in cold PBS and suspended in SIP binding buffer (50 mM HEPES-Na, pH 7.5, 5 mM MgCl2, 1 mM CaCl2, 0.5% FAF-BSA). ^33P-S1P was synthesized enzymatically from γ^33P-ATP and sphingosine using a crude extract with sphingosine kinase activity in a reaction mix containing 50 mM KH2PO4, 1 mM mercaptoethanol, 1 mM Na3VO4, 25 mM KF, 2 mM semicarbazide, 1 mM Na2EDTA, 5 mM MgCl2, […], 0.1% TritonX-114, and 1 mCi γ^33P-ATP (NEN; specific activity 2000 Ci/mnol). Reaction products were extracted with butanol and ^33P-S1p was purified by HPLC.
^33P-S1P (0.1 uCi/ml) was sonicated with 0.2 nM S1P dissolved in binding buffer; 100 μL of the mixture was added to 100 μL cells (1×10^5). Binding was performed for 60 minutes at room temperature. […] After drying the filter plates for 30 minutes, 50 μL of MICROSCINT 20 was added to each well and binding was measured with a Packard Top Count. Non-specific binding was defined as the amount of radioactivity remaining in the presence of 200 nM cold S1P.

Work on `CCCCCCCCCCCCC/C=C/[C@@H](O)[C@@H](N)COP(=O)(O)O` [S1P, sphingosine-1-phosphate] yielded an EC50 (cS1P2 receptor [1]) of about 0.8 nM and an EC50 (cS1P2 receptor [2]) of about 5.7 nM.
